The source of these data is patent US20100048533A1, “LESTAURTINIB CRYSTALLINE FORM 1, CRYSTALLINE LESTAURIMIB ANHYDRATE AND AMORPHOUS LESTAURIMIB” (ABBOTT LABORATORIES, priority 2005, published 2010).

The nature of data set [1]: Slurry of lestaurtinib forms in 200 proof ethanol for 48 hours, remaining form analyzed by PXRD. To be noted: for Form After Mixing With Ethanol For 48 Hours: 200 proof ethanol, PXRD. As to the method:
The forms of lestaurtinib remaining were analyzed by PXRD to determine if any crystal form conversion had occurred.

Data set [2] is described as follows: Solubility in 200 proof ethanol by HPLC (saturated solutions, two-day slurry). The settings on record: slurried two days. Here is the method: Solubility of Lestaurtinib Crystalline Form 1 and anhydrous lestaurtinib at 26° C. and 2-8° C. was determined using HPLC. Saturated solutions of the solid-state phase in ethanol (200 poof) were obtained by slurrying a sample in ethanol for two days at 26° C. and at 2-8° C. After slurrying, each solution was filtered through 0.45 μm micron filter and the level of CEP-701 was determined by HPLC.

A short description of data set [3]: Dynamic moisture sorption gravimetry (DMSG) (hygroscopicity). Type of data set: physicochemical. As to the method: Because moisture-mediated crystallization was not observed during RH levels between 5% and 10%, it was concluded that the solid at 5% RH was crystalline; and because the solid contained less than 0.5% water, it was also determined that it was an anhydrate.
Dynamic moisture sorption gravimetry (DMSG) (hygroscopicity) data were obtained on a VTI Corporation model MB 300 G sorption microbalance using vacuum to control RH. The automated system controlled the RH and temperature to which each sample was exposed, while continuously recording sample weight changes. Sorption and desorption isotherms were performed at 25±0.1° C. with 5±1% RH step intervals from 0-95% RH. Samples of about 15-30 mg were dried under vacuum for up to 3 hours (approximate RH=0-1% RH) before each experiment. The weight loss observed during the drying period was used to estimate how tightly each sample held onto water. After the drying period, sorption isotherms started at 5% RH. A critical weight equilibrium of less than […] weight change over three 5 minutes periods was used to move to the next step. […] Meaning that any water present in the sample was surface water and not lattice water.

The nature of data set [4]: Thermogravimetric analysis (TGA) moisture / weight loss. The data set is classed as physicochemical. The settings on record: for weight loss: TGA. Here is the method:
TGA data were obtained using a TA Instruments Model 3100 and 5200 Thermal Analysts with a Model 2950 Hi Res TGA module. TGA thermograms were acquired at a heating rate of 5° C. per minute, under nitrogen purge with a flow rate of about 40 mL per minute.

A short description of data set [5]: Solid-state stability of crystalline forms versus relative humidity. The data set is classed as physicochemical. To be noted: for RH above which the form converts to a higher hydrate: ambient temperature.

Molecules are shown by their SMILES. ≈ marks a conversion by molar mass, not a printed value.

As for `C[C@]12O[C@H](C[C@]1(O)CO)n1c3ccccc3c3c4c(c5c6ccccc6n2c5c31)CNC4=O` [hydrated, Crystalline Hydrated Lestaurtinib], the “Form After Mixing With Ethanol For 48 Hours” value in data set [1] (2-8° C.) and in data set [1] (26° C.) was 1 each time.

For `CC12OC(CC1(O)CO)n1c3ccccc3c3c4c(c5c6ccccc6n2c5c31)C(=O)NC4` (stereo not shown) [Form I, Lestaurtinib Crystalline Form 1], the Solubility is 2380 µg/mL (≈ 5.42 mM) in data set [2] (2-8° C.) and 2600 µg/mL (≈ 5.92 mM) in data set [2] (26° C.). Besides, the “Form After Mixing With Ethanol For 48 Hours” value in data set [1] (2-8° C.) and in data set [1] (26° C.) was 1 throughout. Moreover, in data set [1] (ambient temperature and 2-8° C.), the “relative stability of crystalline form” value was “most stable crystalline form of lestaurtinib”. Besides, in data set [3], the hygroscopicity entry is “non-hygroscopic”. Besides, the nominal moisture uptake result in data set [3] (DMSG, 25° C.) is given as “about 0.2 % (w/w)”. Moreover, in data set [3] (DMSG, 25° C., 0-95% RH), the moisture uptake result is given as “up to 0.4%”. Also, the “equilibrium moisture content (EMC)” value in data set [3] (DMSG, at moisture uptake up to about 0.4%) was “about 0.1 mole water per mole drug”; in data set [3] (DMSG, at nominal moisture uptake of about 0.2%) it was “about 0.05 mole water per mole drug”. The same compound gave a weight loss in data set [4] (up to about 100° C.) of 0.04%. Also, the moisture entry in data set [4] (determined by TGA) is given as “less than 0.05%”. Further, in data set [5] (regardless of temperature or relative humidity), the solid state conversion result is given as “not known to undergo solid state conversion”.

On to `C[C@]12O[C@H](C[C@]1(O)CO)n1c3ccccc3c3c4c(c5c6ccccc6n2c5c31)CNC4=O` [Amorphous, Amorphous Lestaurtinib], for which the weight loss in data set [4] (up to about 184° C.) was 5.56%.

Regarding `C[C@]12O[C@H](C[C@]1(O)CO)n1c3ccccc3c3c4c(c5c6ccccc6n2c5c31)CNC4=O` [Crystalline lestaurtinib anhydrate, Crystalline Lestaurtinib Anhydrate], in data set [3] (DMSG, 25° C., between 0% and 5% RH), the “water content of solid-state phase” value is “less than 0.5%”. The “RH above which the form converts to a higher hydrate” value in data set [5] was “above 5 % RH”.

`C[C@]12O[C@H](C[C@]1(O)CO)n1c3ccccc3c3c4c(c5c6ccccc6n2c5c31)CNC4=O.O` [Crystalline lestaurtinib monohydrate, crystalline lestaurtinib monohydrate]: the “RH above which the form converts to a higher hydrate” value in data set [5] is recorded as “above 40 % RH”. Also, the “factor by which ability to absorb water is reduced when ground” value in data set [5] (ground with mortar and pestle vs unground) is given as “about 6”.

`CC#N.CC12OC(CC1(O)CO)n1c3ccccc3c3c4c(c5c6ccccc6n2c5c31)C(=O)NC4.CC12OC(CC1(O)CO)n1c3ccccc3c3c4c(c5c6ccccc6n2c5c31)C(=O)NC4.O` (stereo not shown) [hemi: hydrate/acetonitrileate, Crystalline Lestaurtinib Hemihydrate Hemiacetonitrileate]: the “Form After Mixing With Ethanol For 48 Hours” value in data set [1] (2-8° C.) and in data set [1] (26° C.) was 1 each time.

In general, Solubility refers to the concentration that dissolves in the medium under given conditions.
